Data on 5 cell lines can be found in the supplement of paper PMC10307832.

Test in all cases: relative viability (nuclei count vs DMSO), 5 days (fraction); higher = more cells survive
Compound in assay [1]: CC(C)=CC[C@@H](O)C1=CC(=O)c2c(O)ccc(O)c2C1=O [Shikonin]
Summed up:
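Lung cancer cell lines were seeded into 1536-well plates, kept overnight at 37 °C and pinned with five library-drug doses (not always all listed) spaced by √10. After 5 days, nuclei were Hoechst-stained, imaged at 4× and counted with MetaXpress. Viability is treated-well nuclei over vehicle-well nuclei, taken as a median across plates. Plates needed control CV below 25% and at least one doubling.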

Compound in assay [2]: CC(C)=CC[C@@H](O)C1=CC(=O)c2c(O)ccc(O)c2C1=O [Shikonin] + CC(C)C[C@H](NC(=O)[C@H](Cc1ccccc1)NC(=O)c1cnccn1)B(O)O [Bortezomib] (partner 0.002 µM)
An outline of the steps:
(§1)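 Dosing by pin tool came one day after lung cancer cell lines were seeded in 1536-well plates, using either one drug or a fixed anchor-drug dose plus five library-drug doses (not always all listed) in √10 steps. After 5 days, nuclei were counted on 4× images. Relative viability is treated-well nuclei count divided by vehicle-well nuclei count, and values are medians of duplicate plates.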

Compound in assay [3]: CC(C)=CC[C@@H](O)C1=CC(=O)c2c(O)ccc(O)c2C1=O [Shikonin] + Nc1nc2[nH]cc(CCc3ccc(C(=O)N[C@@H](CCC(=O)O)C(=O)O)cc3)c2c(=O)[nH]1 [Pemetrexed] (partner 0.2 µM)
Summed up:
as §1

Compound in assay [4]: CC(C)N(CCCNC(=O)Nc1ccc(C(C)(C)C)cc1)C[C@H]1O[C@@H](n2ccc3c(N)ncnc32)[C@H](O)[C@@H]1O + N=C(N)NC(=N)NCCc1ccccc1 [Phenformin] (partner 250 µM)
Summed up: as §1

Turning to PC-3 [JPC-3], the relative viability in assay [1] (0.01 µM) came out at 1.1; in assay [1] (0.1 µM), 1.05; in assay [1] (0.3162 µM) it was 1.09; in assay [1] (1 µM) it was 1.07; in assay [2] (first compound 0.01 µM) it was 0.824; in assay [2] (first compound 0.1 µM), 0.894. The relative viability in assay [2] (first compound 0.3162 µM) was 0.837; in assay [2] (first compound 1 µM) it was 0.868; in assay [3] (first compound 0.01 µM) it was 1.21; in assay [3] (first compound 0.1 µM), 1.44; in assay [3] (first compound 0.3162 µM) it was 1.05; in assay [3] (first compound 1 µM), 1.63. The relative viability in assay [4] (first compound 0.08 µM) turned out to be 0.478; in assay [4] (first compound 0.253 µM), 0.491; in assay [4] (first compound 0.8 µM) it was 0.495; in assay [4] (first compound 2.53 µM) it was 0.451; in assay [4] (first compound 8 µM), 0.488.

PC-14: the relative viability in assay [1] (0.01 µM) is 1.08; in assay [1] (0.1 µM), 1; in assay [1] (0.3162 µM) it was 1.12; in assay [1] (1 µM) it was 1.11; in assay [2] (first compound 0.01 µM) it was 0.973; in assay [2] (first compound 0.1 µM), 0.953. For the same cell line, the relative viability in assay [2] (first compound 0.3162 µM) turned out to be 1.02; in assay [2] (first compound 1 µM) it was 0.881; in assay [3] (first compound 0.01 µM), 0.15; in assay [3] (first compound 0.1 µM), 0.137; in assay [3] (first compound 0.3162 µM), 0.125; in assay [3] (first compound 1 µM) it was 0.135. In addition, the relative viability in assay [4] (first compound 0.08 µM) amounted to 0.637; in assay [4] (first compound 0.253 µM) it was 0.544; in assay [4] (first compound 0.8 µM), 0.556; in assay [4] (first compound 2.53 µM) it was 0.454; in assay [4] (first compound 8 µM) it was 0.532.

For the cell line RERF-LC-KJ, the relative viability in assay [1] (0.01 µM) was found to be 1.09; in assay [1] (0.1 µM), 0.986; in assay [1] (0.3162 µM), 1.02; in assay [1] (1 µM), 1.03; in assay [2] (first compound 0.01 µM), 1.08; in assay [2] (first compound 0.1 µM), 1.19. The relative viability in assay [2] (first compound 0.3162 µM) was 1.28; in assay [2] (first compound 1 µM), 0.986; in assay [3] (first compound 0.01 µM), 0.47; in assay [3] (first compound 0.1 µM), 0.512; in assay [3] (first compound 0.3162 µM), 0.465; in assay [3] (first compound 1 µM) it was 0.549. Moreover, the relative viability in assay [4] (first compound 0.08 µM) worked out at 0.384; in assay [4] (first compound 0.253 µM) it was 0.378; in assay [4] (first compound 0.8 µM) it was 0.422; in assay [4] (first compound 2.53 µM), 0.386; in assay [4] (first compound 8 µM), 0.395.

For the cell line SK-LU-1, the relative viability was determined as 1.05 in assay [1] (0.01 µM); 1.05 in assay [1] (0.1 µM); 1.21 in assay [1] (0.3162 µM); 1.03 in assay [1] (1 µM); 1.14 in assay [2] (first compound 0.01 µM); 0.984 in assay [2] (first compound 0.1 µM). In addition, the relative viability in assay [2] (first compound 0.3162 µM) came out at 1.34; in assay [2] (first compound 1 µM), 1.58; in assay [3] (first compound 0.01 µM) it was 1.14; in assay [3] (first compound 0.1 µM), 1.17; in assay [3] (first compound 0.3162 µM), 1.01; in assay [3] (first compound 1 µM) it was 0.994. Also, the relative viability in assay [4] (first compound 0.08 µM) amounted to 0.569; in assay [4] (first compound 0.253 µM) it was 0.493; in assay [4] (first compound 0.8 µM), 0.519; in assay [4] (first compound 2.53 µM), 0.56; in assay [4] (first compound 8 µM), 0.45.

SW 1573: the relative viability in assay [1] (0.01 µM) was 1.1; in assay [1] (0.1 µM), 0.967; in assay [1] (0.3162 µM), 0.894; in assay [1] (1 µM), 0.721; in assay [2] (first compound 0.01 µM), 1.12; in assay [2] (first compound 0.1 µM) it was 1.39. Besides, the relative viability was 1.06 in assay [2] (first compound 0.3162 µM); 0.955 in assay [2] (first compound 1 µM); 0.946 in assay [3] (first compound 0.01 µM); 0.947 in assay [3] (first compound 0.1 µM); 0.589 in assay [3] (first compound 0.3162 µM); 0.143 in assay [3] (first compound 1 µM). The relative viability in assay [4] (first compound 0.08 µM) stood at 0.262; in assay [4] (first compound 0.253 µM), 0.403; in assay [4] (first compound 0.8 µM) it was 0.435; in assay [4] (first compound 2.53 µM), 0.391; in assay [4] (first compound 8 µM), 0.378.
